Test results taken from paper PMC6858373 (Scientific Reports, 2019).
Counter-ions that a name gives are not always drawn. Like-named read-outs stand apart in the source and are kept apart here.

How the values were obtained:
[1] = target: T1, FGF14:Nav1.6 C-tail complex (Homo sapiens, UniProt Q92915+Q9UQD0); assay: Split-luciferase complementation assay (LCA) in Clone V double stable HEK293 cells; format: cell-based; conditions: for Split Luciferase Assay Z-score Set 1 / Split Luciferase Assay Z-score Set 2: normalized to on-plate 0.3% DMSO controls
T1 construct: polymerase chain reaction (PCR) amplification of the FGF14 open reading frame (nt 1–855); C-terminal fragment of Nav1.6 (amino acids 1763–1976) fused with CD4ΔC-tail (amino acids 1–395); expressed in transfected cells
T1 sequence (Q92915 1-252 isoform Q92915-2): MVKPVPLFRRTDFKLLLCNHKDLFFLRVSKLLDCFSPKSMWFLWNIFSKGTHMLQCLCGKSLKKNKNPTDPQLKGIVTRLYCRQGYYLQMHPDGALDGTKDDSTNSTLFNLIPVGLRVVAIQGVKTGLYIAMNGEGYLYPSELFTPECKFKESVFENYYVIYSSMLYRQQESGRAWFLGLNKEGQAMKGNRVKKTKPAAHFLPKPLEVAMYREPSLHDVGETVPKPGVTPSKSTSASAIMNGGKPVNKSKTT
T1 sequence (Q9UQD0 1763-1976 limits assumed): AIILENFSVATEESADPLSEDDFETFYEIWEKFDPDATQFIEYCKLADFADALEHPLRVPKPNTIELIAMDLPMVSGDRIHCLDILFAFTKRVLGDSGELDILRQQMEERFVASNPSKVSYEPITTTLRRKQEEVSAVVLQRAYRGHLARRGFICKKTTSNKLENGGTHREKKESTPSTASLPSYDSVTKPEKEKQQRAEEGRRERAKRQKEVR

[2] = target: full-length P. pyralis luciferase (Photinus pyralis, UniProt P08659, K549A/L550V/N119G/N50D/S548I); format: cell-based
Sequence of full-length P. pyralis luciferase (P08659 whole entry N50D/N119G/S548I/K549A/L550V, looked up): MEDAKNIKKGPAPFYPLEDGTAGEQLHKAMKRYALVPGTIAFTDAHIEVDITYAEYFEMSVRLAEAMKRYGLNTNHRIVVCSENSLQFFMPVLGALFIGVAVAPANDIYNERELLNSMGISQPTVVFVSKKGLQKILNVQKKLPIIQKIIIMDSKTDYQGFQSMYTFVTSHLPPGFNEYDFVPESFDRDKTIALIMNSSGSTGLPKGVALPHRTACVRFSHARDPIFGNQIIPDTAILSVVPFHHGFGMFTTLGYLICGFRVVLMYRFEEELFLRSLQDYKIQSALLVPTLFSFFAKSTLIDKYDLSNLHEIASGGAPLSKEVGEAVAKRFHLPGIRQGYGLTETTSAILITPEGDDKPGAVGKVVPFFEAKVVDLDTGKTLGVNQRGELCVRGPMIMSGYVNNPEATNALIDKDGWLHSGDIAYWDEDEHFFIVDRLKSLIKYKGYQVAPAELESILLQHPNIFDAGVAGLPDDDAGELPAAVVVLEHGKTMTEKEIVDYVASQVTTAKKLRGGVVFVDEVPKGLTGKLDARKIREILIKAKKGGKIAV

Clone V cells = conditions: human
in vitro = conditions: human
[3] = CC_NCI screening, biological replicate Set 1
[4] = CC_NCI screening, biological replicate Set 1, normalized to on-plate 0.3% DMSO controls (n=16 per plate)
[5] = CC_NCI screening, biological replicate Set 2
[6] = CC_NCI screening, biological replicate Set 2, normalized to on-plate 0.3% DMSO controls (n=16 per plate)
[7] = average of Set 1 and Set 2, normalized to 0.3% DMSO controls
[8] = CC_NCI screening, normalized to on-plate 0.3% DMSO controls

| Compound | Split Luciferase Assay Z-score Set 1 [1, 3] | Split Luciferase Assay % Lum Set 1 [1, 4] [%] | Split Luciferase Assay Z-score Set 2 [1, 5] | Split Luciferase Assay %Lum Set 2 [1, 6] [%] | Split Luciferase Assay %Lum Avg [1, 7] [%] | Luciferase Assay % Lum (full-length luciferase counter-screen) [2, 8] [%] | Luciferase Assay Z-score (full-length luciferase counter-screen) [2, 8] | Toxicity Assay Z-score (CTB cell viability) (Clone V cells; 16 h, 30 µM) | viability at 16 h, 30 µM (in vitro) [%] | Luciferase Assay % Lum (full-length luciferase counter-screen) [2] [%] | Luciferase Assay Z-score (full-length luciferase counter-screen) [2] | viability at 16 h, 30 µM (in vitro; Clone V cells) [%] | Split Luciferase Assay % Lum Set 1 [1] [%] | Split Luciferase Assay %Lum Avg [1] [%] | Split Luciferase Assay %Lum Set 2 [1] [%] | Toxicity Assay Z-score (CTB cell viability) (Clone V cells) | viability (in vitro) [%] |
| --- | --- | --- | --- | --- | --- | --- | --- | --- | --- | --- | --- | --- | --- | --- | --- | --- | --- |
| COc1cc(F)c(F)c(Nc2ccc(I)cc2F)c1NS(=O)(=O)C1(C[C@H](O)CO)CC1 [RDEA119] | -7.09 | 12.28 | -7.37 | 9.36 | 10.82 | 66.81 | -4.25 | 0.34 | 102 | – | – | – | – | – | – | – | – |
| CC(=O)O[C@]1(C(C)=O)CC[C@H]2[C@@H]3C=C(C)C4=CC(=O)CC[C@]4(C)[C@H]3CC[C@@]21C [Megestrol acetate] | 4.24 | 152.52 | 2.87 | 135.24 | 143.88 | – | – | 0.79 | 106 | 99.64 | -0.05 | – | – | – | – | – | – |
| NCC(=O)CCC(=O)O [Aminolevulinic acid hydrochloride] | -0.06 | 99.25 | 0.75 | 109.23 | 104.24 | 100.02 | 0.00 | 0.31 | – | – | – | 102 | – | – | – | – | – |
| CCCCC(=O)OCC(=O)[C@]1(O)Cc2c(O)c3c(c(O)c2[C@@H](O[C@H]2C[C@H](NC(=O)C(F)(F)F)[C@H](O)[C@H](C)O2)C1)C(=O)c1c(OC)cccc1C3=O [Valrubicin] | 2.84 | 135.13 | 1.17 | 114.43 | 124.78 | – | – | 0.60 | 104 | 92.36 | -0.98 | – | – | – | – | – | – |
| COc1cc([C@@H]2c3cc4c(cc3[C@@H](O[C@@H]3O[C@@H]5CO[C@@H](c6cccs6)O[C@H]5[C@H](O)[C@H]3O)[C@H]3COC(=O)[C@H]23)OCO4)cc(OC)c1O [Teniposide] | 1.61 | 119.91 | 2.11 | 125.88 | 122.89 | 92.82 | -0.92 | 0.66 | – | – | – | 105 | – | – | – | – | – |
| C[C@@H](CN1CC(=O)NC(=O)C1)N1CC(=O)NC(=O)C1 [Dexrazoxane] | 1.26 | 115.56 | 1.51 | 118.60 | 117.08 | – | – | 2.09 | 115 | 109.07 | 1.16 | – | – | – | – | – | – |
| S=P(N1CC1)(N1CC1)N1CC1 [Thiotepa] | 0.38 | – | 2.11 | – | – | 95.81 | -0.54 | 1.01 | – | – | – | 107 | 104.69 | 115.28 | 125.88 | – | – |
| CC(=O)[C@]1(O)Cc2c(O)c3c(c(O)c2[C@@H](O[C@H]2C[C@H](N)[C@H](O)[C@H](C)O2)C1)C(=O)c1ccccc1C3=O [Idarubicin hydrochloride] | 0.12 | 101.43 | -0.69 | 91.55 | 96.49 | 114.41 | 1.85 | 1.79 | – | – | – | 113 | – | – | – | – | – |
| Nc1ccn([C@@H]2O[C@H](CO)[C@@H](O)[C@@H]2O)c(=O)n1 [Cytarabine hydrochloride] | -0.50 | 93.82 | 0.16 | 101.95 | 97.88 | 93.77 | -0.80 | 1.12 | 108 | – | – | – | – | – | – | – | – |
| COc1cc(O)c2c(c1)[C@H]1O[C@@H]1C[C@H](O)[C@H](O)C(=O)/C=C\C[C@H](C)OC2=O [HYPOTHEMYCIN] | -3.75 | 53.59 | -4.16 | 48.89 | 51.24 | 72.32 | -3.54 | – | – | – | – | – | – | – | – | 0.42 | 103 |
| CC(C)Cn1cnc2c(N)nc3ccccc3c21 [Imiquimod] | 1.35 | 116.65 | 1.01 | 112.35 | 114.50 | 104.72 | 0.60 | 1.03 | 107 | – | – | – | – | – | – | – | – |
| CN(C)c1nc(N(C)C)nc(N(C)C)n1 [Altretamine] | -0.59 | 92.73 | 1.85 | 122.76 | 107.74 | – | – | 0.43 | 103 | 97.84 | -0.28 | – | – | – | – | – | – |
| O=C(NCCCNc1nc(Nc2cccc(NC(=O)N3CCCC3)c2)ncc1I)c1cccs1 [BX 795] | -4.28 | 47.07 | -5.85 | 28.09 | 37.58 | 70.68 | -3.76 | 0.47 | 103 | – | – | – | – | – | – | – | – |
| CNNCc1ccc(C(=O)NC(C)C)cc1 [Procarbazine hydrochloride] | 1.52 | 118.82 | -0.26 | 96.75 | 107.78 | – | – | 1.21 | 109 | 99.34 | -0.08 | – | – | – | – | – | – |
